Measured values reported in patent publication US20090221683A1, “Combination of CXCR4 Antagonist and Morphogen to Increase Angiogenesis” (Caritas St.Elizabeth Medical Center of Boston, Inc, priority 2005, published 2009).
Like-named read-outs stand apart in the source and are kept apart here.

How the values were obtained:
[1] = test system: peripheral blood EPCs
Method: (§1) Peripheral blood mononuclear cells (PBMNCs) were isolated from 500 μl of peripheral blood obtained from each mouse. PBMNCs were cultured in EBM media (Clonetics, San Diego, Calif.) supplemented with 5% fetal bovine serum (FBS), antibiotics, and growth factors (EPC medium) on four 4-well glass slides coated with rat plasma vitronectin (Sigma) in 0.5% gelatin solution. Four days after culture, EPCs, recognized as attaching spindle-shaped cells, were assayed by co-staining with acetylated LDL (acLDL)-DiI (Biomedical Technologies, Stoughton, Mass.) and Bandeiraea simplicifolia (BS-1) lectin I (Vector Laboratories, Burlingame, Calif.), characteristics indicators of endothelial lineage, and conjugated with FITC (Sigma). Fluorescent microscopy identified double-positive cells as […] The numbers of double-positive cells per sample, measured in fifteen fields under 20× magnification, was were counted per sample in a blinded manner.
At each time point after the induction of MI, mononuclear cells were isolated from peripheral blood and total BM cells that had been obtained by flushing the tibias and femurs. EPCs were counted by culturing as described in Example 1, and stained with both acLDL-DiI and BS-1 lectin. Double positive cells were counted in 15 fields under objective 20× magnification per sample in a blinded manner.

[2] = test system: bone marrow EPCs (Sca-1/Flk-1 positive); settings: one week after MI
Method: (§2) Fluorescence-activated cell sorting (FACS) was used to identify EPCs from mononuclear cells isolated both from peripheral blood and bone marrow. The viable mononuclear cell population was analyzed for the expression of Sca-1-FITC (Pharmingen) and Flk-1 (Santa Cruz) conjugated with the corresponding phycoerythrin-labeled secondary antibody (Sigma). Isotype-identical antibodies served as negative controls. Immunofluorescence-labeled cells were fixed with 2% paraformaldehyde and analyzed by quantitative flow cytometry using a FACStar flow cytometer (Becton Dickinson) and Cell Quest Software that counted 10,000 events per sample.

[3] = test system: peripheral blood EPCs (Sca-1/Flk-1 positive); settings: one week after MI
Method: as §2

[4] = test system: circulating EPC; settings: 2 hour after treatment; 240 μg/kg SC
Method: (§3) Methods: Using wild-type rats, MI was induced by ligation of the left anterior descending artery. […] 4 weeks after treatment, echocardiography, hemodynamic measurement and histological examination were performed.

[5] = test system: FVB mice with myocardial infarction; settings: for FS (fractional shortening) / LVDd (left ventricular diastolic dimension) / LVDs (left ventricular systolic dimension) / LV + dP/dt / LV − dP/dt / LVEDP (left ventricular end-diastolic pressure) / LVSP (left ventricular systolic pressure): mean ± SE
Method: (§4) Eight-week old male FVB mice were anesthetized with sodium pentobarbital (50 mg/kg IP). The animals were intubated orally with a 22G IV catheter and artificially ventilated with a respirator (Harvard Apparatus). A left intercostal thoracotomy was performed and the ribs were retracted with 5-0 polypropylene sutures. After the pericardium was opened, the left anterior descending (LAD) branch of the left coronary artery was ligated proximal to the bifurcation between the LAD and the diagonal branch using 8-0 polypropylene sutures and visualized with a dissecting microscope. Positive end-expiratory pressure was applied to fully inflate the lungs, and the chest was closed with 7-0 polypropylene sutures. […] After physiological assessment at one, two and four weeks after MI, a subgroup of the mice were euthanized by intravenous administration of a lethal dose of pentobarbital.
Transthoracic echocardiography (SONOS 5500, Hewlett Packard) was performed just before MI and one, two and four weeks after MI. Left ventricular diastolic (LVDd) and systolic (LVDs) dimensions and fractional shortening were measured at the mid-papillary muscle level. Hemodynamic measurements were obtained at two and four weeks after MI using a 1.0-French high-fidelity pressure catheter (Millar Instruments, Houston, Tex.) via the left carotid artery. LV systolic pressure and maximal positive (+dP/dt) and negative (−dP/dt) pressure development were recorded after stabilization of LV function and heart rate. Such methods can be used for study of the compositions and methods of the instant invention.

[6] = test system: bone marrow EPCs (Sca-1/Flk-1 positive) of MMP-9-/- mice; settings: 1 week after MI
Description: MMP-9 expression was disrupted by deleting of most of exon 2 of the MMP-9 gene in the 129/SvEv genetic background (Jackson), as described previously. [Vu, 1998 #2370] […] Mononuclear cells from peripheral blood and total BM cells were isolated one week after MI and were examined by FACS analysis as described above.

[7] = test system: MMP-2 mRNA; settings: one week after MI; RT-PCR
Method: (§5) RNA was extracted from mononuclear cells isolated from bone marrow using TRIzol reagent (Invitrogen) according to the manufacture's instruction. Reverse transcriptase-polymerase chain reaction (RT-PCR) of the MMP-9 and GAPDH genes was performed using 1 pg of total RNA. PCR was performed for 25 cycles for both MMP-9 and GAPDH; each cycle maintained 94° C. for 30 seconds and 64° C. for three minutes. Amplification was carried out in 20-μl reaction mixtures containing 0.4 U Taq polymerase.

[8] = test system: MMP-9 mRNA; settings: one week after MI; RT-PCR
Method: as §5

[9] = test system: mice with AMI
Method: as §4
All values were expressed as mean±the standard error of the mean. […] Overall survival of all the mice was assessed by Kaplan-Meier analysis. Survival in individual experimental groups was also analyzed by Fisher's extract probability test. A p value of less than 0.05 was considered statistically significant.

[10] = test system: bone marrow derived EPCs (X-gal positive cells); settings: Tie2-LacZ/BMT mice
Description: (§6) Such methods can be used for study of the compositions and methods of the instant invention.
as §6

[11] = test system: left ventricular myocardium border zone capillaries; settings: two weeks after AMI
Method: (§7) The explanted hearts of sacrificed mice were sliced in a bread-loaf fashion into transverse sections from apex to base (base-, mid-, and apex-portions) and fixed with 4% paraformaldehyde. Tissues were embedded in paraffin and sectioned for elastic tissue/trichrome staining and immunohistochemistry using the murine-specific EC marker Bandeiraea simplicifolia lectin I (Isolectin B4) (Vector laboratories).
(§8) Capillary density was assessed by histological examination of five randomly selected fields of tissue sections from segments of the left ventricular myocardium served by the occluded LAD. Capillaries were recognized as tubular structures positive for isolectin B4. Elastic tissue/trichrome-stained tissues from the mice four weeks after MI were used to measure the average ratio of the external circumference of fibrosis area to LV area.

[12] = test system: left ventricle fibrosis; settings: two weeks after AMI
Method: as §7, §8

[13] = test system: bone-marrow derived endothelial cells (double-positive cells); settings: one week after AMI
Description: as §6
Apex-sections from the Tie-2/LZ/BMT mice were embedded in OCT compound (Miles Scientific) and snap-frozen in liquid nitrogen for fluorescence microscopy immediately after sacrifice.
Sections of ischemic (FIGS. 12A-12F) and intact (FIGS. 13A-13F) myocardium were stained for both BS lectin 1 (green fluorescence) and β-galactosidase (red fluorescence). […] Such methods can be used for study of the compositions and methods of the instant invention.

[14] = test system: peripheral blood MNCs and EPCs
Method: as §1, §6

[15] = test system: border zone between scar and normal tissue capillaries; assay: Chronic MI rats: capillary density in the border zone; assay type: in vivo, rat; settings: 4 weeks after treatment
Method: as §3

[16] = 1 week after MI, 125 μg s.c. single injection
[17] = 2 weeks after MI, 125 μg s.c. single injection
[18] = 2 weeks after MI, 125 μg s.c. single injection, listed as AMD
[19] = 2 weeks after MI, listed as AMD
[20] = 4 weeks after MI, 125 μg s.c. single injection
[21] = 4 weeks after MI, 125 μg s.c. single injection, listed as AMD
[22] = 4 weeks after MI, listed as AMD

c1cc(CN2CCCNCCNCCCNCC2)ccc1CN1CCCNCCNCCCNCC1 [AMD-3100, 1,1′-[1,4-phenylene-bis(methylene)]-bis-1,4,8,11-tetraazacyclotetradecane]
number of cultured EPCs ([1]; four weeks after AMI): returned to basline
number of EPCs in the peripheral blood (cultured, acLDL-DiI/BS-1 lectin double positive) ([1]; one week after AMI): 868±210 /mm^2
number of EPCs in the peripheral blood (cultured, acLDL-DiI/BS-1 lectin double positive) ([1]; two weeks after AMI): 556±47 /mm^2
EPCs (Sca-1/Flk-1 positive) in BM mononuclear cells by FACS [2]: 1.9±0.1%
EPCs (Sca-1/Flk-1 positive) in peripheral blood mononuclear cells by FACS [3]: 11.3±1.4%
circulating EPC counts relative to baseline [4]: five
FS (fractional shortening) [5, 16]: 35 ± 2%
LVDd (left ventricular diastolic dimension) [5, 16]: 3.5 ± 0.1 mm
LVDs (left ventricular systolic dimension) [5, 16]: 2.2 ± 0.1 mm
FS (fractional shortening) [5, 17]: 34±1%
LVDd (left ventricular diastolic dimension) [5, 17]: 3.8±0.1 mm
LVDs (left ventricular systolic dimension) [5, 17]: 2.5±0.1 mm
FS (fractional shortening) [5, 18]: 34±1%
LVDd (left ventricular diastolic dimension) [5, 18]: 3.8 ± 0.1 mm
LVDs (left ventricular systolic dimension) [5, 18]: 2.5 ± 0.1 mm
LVDd (left ventricular diastolic dimension) ([5]; 2 weeks after MI, 125 μg s.c. single injection, listed as AMD3100): 3.8±0.1 mm
LV + dP/dt ([5]; 2 weeks after MI): 3383±104 mm Hg/s
LV − dP/dt ([5]; 2 weeks after MI): 2213±113 mm Hg/s
LVEDP (left ventricular end-diastolic pressure) ([5]; 2 weeks after MI): 1.6±0.4 mmHg
LVSP (left ventricular systolic pressure) ([5]; 2 weeks after MI): 71±2 mmHg
LV − dP/dt [5, 19]: 2842 ± 200 mm Hg/s
LVEDP (left ventricular end-diastolic pressure) [5, 19]: 1.5±0.2 mmHg
LVSP (left ventricular systolic pressure) [5, 19]: 73 ± 3 mmHg
LVDs ([5]; 3 wks post-MI (as printed in text)): 2.5±0.2 mm
LVDd (left ventricular diastolic dimension) [5, 20]: 4.0±0.1 mm
LVDs (left ventricular systolic dimension) [5, 20]: 2.6±0.2 mm
FS (fractional shortening) [5, 21]: 28±1%
LVDd (left ventricular diastolic dimension) [5, 21]: 4.0 ± 0.1 mm
LVDs (left ventricular systolic dimension) [5, 21]: 2.9 ± 0.1 mm
LV − dP/dt ([5]; 4 weeks after MI): 2213 ± 112 mm Hg/s
LV + dP/dt [5, 22]: 3383±104 mm Hg/s
LVEDP (left ventricular end-diastolic pressure) [5, 22]: 1.6±0.4 mmHg
LVSP (left ventricular systolic pressure) [5, 22]: 71±2 mmHg
FS (fractional shortening) ([5]; Before MI (baseline)): 52 ± 1%
LVDd (left ventricular diastolic dimension) ([5]; Before MI (baseline)): 2.8 ± 0.1 mm
LVDs (left ventricular systolic dimension) ([5]; Before MI (baseline)): 1.4 ± 0.1 mm
difference in left ventricular systolic pressure (LVSP) between the groups ([5]; two weeks after MI): no significant difference
difference in Sca-1/Flk-1 positive BM cells versus saline [6]: no significant difference
MMP-2 mRNA expression in BM-mononuclear cells [7]: but not MMP-2
MMP-9 mRNA expression in BM-mononuclear cells [8]: enhanced expression
mice still living (survival rate) ([9]; 14 weeks after AMI, FIG. 4A): 64%
mice died ([9]; another group of mice, four weeks after MI, FIG. 4B): 42%
survival rate versus mice receiving saline ([9]; four weeks after MI, P<0.05): higher
number of X-gal positive cells in infarct and border area ([10]; 1 week after AMI): 3776±113 /mm^2
number of X-gal positive cells in infarct and border area ([10]; 2 weeks after AMI): 1906±138 /mm^2
capillary density in the border zone [11]: 4005±189 /mm^2
fibrosis area of left ventricle [12]: 25±6%
double-positive cells (BS lectin 1 and β-galactosidase) ([13]; a representative section): eight
double-positive cells (BS lectin 1 and β-galactosidase) ([13]; another representative section): eight
maximal MNCs and EPCs (acLDL uptake and BS-1 lectin double-positive cells) ([14]; 1 hour after single s.c. injection of 125 μg, n=5 experiments): 613±89 cells/mm^2
time for number of EPCs/MNCs to return to baseline after injection ([14]; single s.c. injection of 125 μg): ≤ 24 h
capillary density in the border zone between scar and normal tissue, increase vs. control [15]: +52%
